The structures appear in SMILES notation. Like-named read-outs stand apart in the source and are kept apart here.

What all share (assay): Glasshouse assay for herbicidal activity (pre- and post-emergence), percentage phytotoxicity
Common to all, as to format: in vivo

Assay [1] deals with Echinochloa crus-galli (ECHCG). The conditions noted are these: Echinochloa crus-galli, 250 g/ha, visual assessment (100%=total damage, 0%=no damage). Put shortly:
(§1)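 Potted test plants in standard soil received the compound pre-emergence (day 1) or post-emergence (about day 12). Evaluation: visual damage score from 0% (none) to 100% (total), 15 days after application post-emergence, 20 days pre-emergence.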

A further assay has as its system Lolium perenne (LOLPE). The conditions noted are these: Lolium perenne, 250 g/ha, visual assessment (100%=total damage, 0%=no damage). Put shortly:
as §1

A further assay relates to Avena fatua (AVEFA). The conditions noted are these: Avena fatua, 250 g/ha, visual assessment (100%=total damage, 0%=no damage). Put shortly: as §1
Assay [2] has as its system Alopecurus myosuroides (ALOMY). The conditions noted are these: Alopecurus myosuroides, 250 g/ha, visual assessment (100%=total damage, 0%=no damage). Put shortly:
as §1

Where [3] appears, read: post-emergence, 360 h, post-emergence, 15 DAA, read-out: Post-emergence herbicidal activity (percentage phytotoxicity) ECHCG POST.
Setting [4] is: pre-emergence, 480 h, pre-emergence, 20 DAA, read-out: Pre-emergence herbicidal activity (percentage phytotoxicity) ECHCG PRE.
Setting [5] is: post-emergence, 360 h, post-emergence, 15 DAA, read-out: Post-emergence herbicidal activity (percentage phytotoxicity) LOLPE POST.
[6] abbreviates: pre-emergence, 480 h, pre-emergence, 20 DAA, read-out: Pre-emergence herbicidal activity (percentage phytotoxicity) LOLPE PRE.
[7] abbreviates: post-emergence, 360 h, post-emergence, 15 DAA, read-out: Post-emergence herbicidal activity (percentage phytotoxicity) AVEFA POST.
[8] abbreviates: pre-emergence, 480 h, pre-emergence, 20 DAA, read-out: Pre-emergence herbicidal activity (percentage phytotoxicity) AVEFA PRE.
Setting [9] is: post-emergence, 360 h, post-emergence, 15 DAA, read-out: Post-emergence herbicidal activity (percentage phytotoxicity) ALOMY POST.
[10] abbreviates: pre-emergence, 480 h, pre-emergence, 20 DAA, read-out: Pre-emergence herbicidal activity (percentage phytotoxicity) ALOMY PRE.

Take `Cc1cc(-c2ncc(Cl)cn2)cc(C)c1C1C(=O)C[C@@H](CC(=O)NC(C)(C)C)C1=O` (stereo partly shown) [Compound B49]: the pest or weed control at 250 g/ha amounted to 100% in assay [1] (setting [3]); 100% in assay [1] (setting [4]); 100% in the assay with Lolium perenne (LOLPE) (setting [5]); 100% in the assay with Lolium perenne (LOLPE) (setting [6]); 100% in the assay with Avena fatua (AVEFA) (setting [7]); 90% in the assay on Avena fatua (AVEFA) (setting [8]). For the same compound, the pest or weed control at 250 g/ha in assay [2] (setting [9]) and in assay [2] (setting [10]) was 100% each time.
Take `Cc1cc(-c2ncc(Cl)cn2)cc(C)c1C1C(=O)C[C@H](CC(=O)NC(C)(C)C)C1=O` (stereo partly shown) [Compound B50]: the pest or weed control at 250 g/ha in assay [1] (setting [3]) came to 100%; in assay [1] (setting [4]) it was 100%; in the assay on Lolium perenne (LOLPE) (setting [5]), 100%; with Lolium perenne (LOLPE) (setting [6]), 100%; in the assay on Avena fatua (AVEFA) (setting [7]), 90%; in the assay on Avena fatua (AVEFA) (setting [8]) it was 70%. The pest or weed control at 250 g/ha is 100% in assay [2] (setting [9]) and 90% in assay [2] (setting [10]).
Consider `Cc1cc(-c2ncc(F)cc2F)cc(C)c1C1C(=O)C[C@@H](CC(=O)NC(C)(C)C)C1=O` (stereo partly shown) [Compound B51], for which the pest or weed control at 250 g/ha in assay [1] (setting [3]) stood at 100%; in assay [1] (setting [4]) it was 100%; in the assay with Lolium perenne (LOLPE) (setting [5]), 100%; in the assay with Lolium perenne (LOLPE) (setting [6]) it was 100%; with Avena fatua (AVEFA) (setting [7]), 100%; in the assay on Avena fatua (AVEFA) (setting [8]), 80%. The pest or weed control at 250 g/ha in assay [2] (setting [9]) worked out at 100%; in assay [2] (setting [10]), 90%.
Take `Cc1cc(-c2ncc(F)cc2F)cc(C)c1C1C(=O)C[C@H](CC(=O)NC(C)(C)C)C1=O` (stereo partly shown) [Compound B52]: the pest or weed control at 250 g/ha in assay [1] (setting [3]) was 100%; in assay [1] (setting [4]), 90%; in the assay with Lolium perenne (LOLPE) (setting [5]), 100%; in the assay with Lolium perenne (LOLPE) (setting [6]) it was 100%; with Avena fatua (AVEFA) (setting [7]), 90%; in the assay with Avena fatua (AVEFA) (setting [8]) it was 70%. In addition, the pest or weed control at 250 g/ha in assay [2] (setting [9]) was found to be 100%; in assay [2] (setting [10]) it was 90%.
Regarding `Cc1cc(-c2ncc(Cl)cc2F)cc(C)c1C1C(=O)CC(CC(N)=O)C1=O` (stereo not shown) [Compound B53], the pest or weed control at 250 g/ha in assay [1] (setting [3]) turned out to be 100%; in assay [1] (setting [4]), 90%; in the assay with Lolium perenne (LOLPE) (setting [5]), 100%; in the assay with Lolium perenne (LOLPE) (setting [6]), 90%; in the assay with Avena fatua (AVEFA) (setting [7]) it was 100%; in the assay with Avena fatua (AVEFA) (setting [8]), 100%. The pest or weed control at 250 g/ha in assay [2] (setting [9]) and in assay [2] (setting [10]) was 90% each time.
For `Cc1cc(-c2ncc(F)cc2F)cc(C)c1C1C(=O)CC(CC(N)=O)C1=O` (stereo not shown) [Compound B54], the pest or weed control at 250 g/ha in assay [1] (setting [3]) amounted to 100%; in assay [1] (setting [4]), 80%; in the assay on Lolium perenne (LOLPE) (setting [5]) it was 100%; with Lolium perenne (LOLPE) (setting [6]), 80%; in the assay with Avena fatua (AVEFA) (setting [7]), 100%; in the assay on Avena fatua (AVEFA) (setting [8]) it was 80%. In addition, the pest or weed control at 250 g/ha stood at 100% in assay [2] (setting [9]) and 80% in assay [2] (setting [10]).
For `C#CC(C)(COC)NC(=O)CC1CC(=O)C(c2c(C)cc(C)cc2C)C1=O` (stereo not shown) [Compound B55], the pest or weed control at 250 g/ha in assay [1] (setting [3]) stood at 60%; in assay [1] (setting [4]), 50%; with Lolium perenne (LOLPE) (setting [5]), 70%; in the assay with Lolium perenne (LOLPE) (setting [6]) it was 70%; with Avena fatua (AVEFA) (setting [7]), 60%; with Avena fatua (AVEFA) (setting [8]), 30%. Besides, the pest or weed control at 250 g/ha in assay [2] (setting [9]) and in assay [2] (setting [10]) was 80% in each case.
On to `C#CC(C)NC(=O)CC1CC(=O)C(c2c(C)cc(C)cc2C)C1=O` (stereo not shown) [Compound B56], for which the pest or weed control at 250 g/ha in assay [1] (setting [3]) came to 90%; in assay [1] (setting [4]), 90%; with Lolium perenne (LOLPE) (setting [5]), 90%; with Lolium perenne (LOLPE) (setting [6]), 80%; with Avena fatua (AVEFA) (setting [7]), 90%; in the assay on Avena fatua (AVEFA) (setting [8]), 70%. Further, the pest or weed control at 250 g/ha amounted to 90% in assay [2] (setting [9]) and 80% in assay [2] (setting [10]).
Regarding `Cc1cc(C)c(C2C(=O)CC(CC(=O)NCC(F)F)C2=O)c(C)c1` (stereo not shown) [Compound B57], the pest or weed control at 250 g/ha in assay [1] (setting [3]) came out at 80%; in assay [1] (setting [4]), 90%; in the assay on Lolium perenne (LOLPE) (setting [5]), 80%; with Lolium perenne (LOLPE) (setting [6]) it was 80%; with Avena fatua (AVEFA) (setting [7]), 80%; with Avena fatua (AVEFA) (setting [8]), 20%. The pest or weed control at 250 g/ha in assay [2] (setting [9]) and in assay [2] (setting [10]) was 70% in each case.
With `Cc1cc(C)c(C2C(=O)CC(CC(=O)NC(C#N)C3CC3)C2=O)c(C)c1` (stereo not shown) [Compound B58], the pest or weed control at 250 g/ha in assay [1] (setting [3]) came to 20%; in assay [1] (setting [4]), 20%; in the assay with Lolium perenne (LOLPE) (setting [5]), 50%; with Lolium perenne (LOLPE) (setting [6]), 20%; in the assay on Avena fatua (AVEFA) (setting [7]), 70%; with Avena fatua (AVEFA) (setting [8]) it was 40%. For the same compound, the pest or weed control at 250 g/ha amounted to 50% in assay [2] (setting [9]) and 10% in assay [2] (setting [10]).
With `Cc1cc(C)c(C2C(=O)CC(CC(=O)NCC(F)(F)F)C2=O)c(C)c1` (stereo not shown) [Compound B59], the pest or weed control at 250 g/ha turned out to be 80% in assay [1] (setting [3]); 90% in assay [1] (setting [4]); 80% in the assay on Lolium perenne (LOLPE) (setting [5]); 90% in the assay on Lolium perenne (LOLPE) (setting [6]); 70% in the assay on Avena fatua (AVEFA) (setting [7]); 30% in the assay with Avena fatua (AVEFA) (setting [8]). In addition, the pest or weed control at 250 g/ha in assay [2] (setting [9]) and in assay [2] (setting [10]) was 70% in each case.
Regarding `Cc1cc(C)c(C2C(=O)CC(CC(=O)NCC3CC3C(F)F)C2=O)c(C)c1` (stereo not shown) [Compound B60], the pest or weed control at 250 g/ha was found to be 90% in assay [1] (setting [3]); 90% in assay [1] (setting [4]); 80% in the assay on Lolium perenne (LOLPE) (setting [5]); 80% in the assay on Lolium perenne (LOLPE) (setting [6]); 80% in the assay on Avena fatua (AVEFA) (setting [7]); 60% in the assay on Avena fatua (AVEFA) (setting [8]). For the same compound, the pest or weed control at 250 g/ha was found to be 80% in assay [2] (setting [9]) and 90% in assay [2] (setting [10]).
Consider `Cc1cc(C)c(C2C(=O)CC(CC(=O)NCCF)C2=O)c(C)c1` (stereo not shown) [Compound B61], for which the pest or weed control at 250 g/ha in assay [1] (setting [3]) was 90%; in assay [1] (setting [4]), 90%; with Lolium perenne (LOLPE) (setting [5]) it was 90%; with Lolium perenne (LOLPE) (setting [6]) it was 90%; in the assay with Avena fatua (AVEFA) (setting [7]), 90%; in the assay with Avena fatua (AVEFA) (setting [8]), 70%. In addition, the pest or weed control at 250 g/ha in assay [2] (setting [9]) worked out at 80%; in assay [2] (setting [10]) it was 70%.
For the compound `C=CC1(NC(=O)CC2CC(=O)C(c3c(C)cc(C)cc3C)C2=O)CC1` (stereo not shown) [Compound B62], the pest or weed control at 250 g/ha in assay [1] (setting [3]) came to 70%; in assay [1] (setting [4]), 90%; with Lolium perenne (LOLPE) (setting [5]), 90%; in the assay on Lolium perenne (LOLPE) (setting [6]), 90%; with Avena fatua (AVEFA) (setting [7]) it was 70%; in the assay on Avena fatua (AVEFA) (setting [8]), 40%. Moreover, the pest or weed control at 250 g/ha in assay [2] (setting [9]) was 70%; in assay [2] (setting [10]), 80%.
Consider `Cc1cc(C)c(C2C(=O)CC(CC(=O)NC(C)C(F)(F)F)C2=O)c(C)c1` (stereo not shown) [Compound B63], for which the pest or weed control at 250 g/ha in assay [1] (setting [3]) came to 70%; in assay [1] (setting [4]) it was 80%; in the assay with Lolium perenne (LOLPE) (setting [5]) it was 70%; with Lolium perenne (LOLPE) (setting [6]), 80%; with Avena fatua (AVEFA) (setting [7]), 70%; in the assay on Avena fatua (AVEFA) (setting [8]) it was 50%. Further, the pest or weed control at 250 g/ha was 70% in assay [2] (setting [9]) and 80% in assay [2] (setting [10]).
For the compound `Cc1cc(C)c(C2C(=O)CC(CC(=O)Nc3ccccn3)C2=O)c(C)c1` (stereo not shown) [Compound B64], the pest or weed control at 250 g/ha worked out at 70% in assay [1] (setting [3]); 80% in assay [1] (setting [4]); 80% in the assay on Lolium perenne (LOLPE) (setting [5]); 70% in the assay with Lolium perenne (LOLPE) (setting [6]); 70% with Avena fatua (AVEFA) (setting [7]); 50% with Avena fatua (AVEFA) (setting [8]). Besides, the pest or weed control at 250 g/ha in assay [2] (setting [9]) and in assay [2] (setting [10]) was 80% each time.
Turning to `Cc1cc(C)c(C2C(=O)CC(CC(=O)NC(C)(C)C3CC3)C2=O)c(C)c1` (stereo not shown) [Compound B65], the pest or weed control at 250 g/ha in assay [1] (setting [3]) came out at 70%; in assay [1] (setting [4]) it was 90%; in the assay on Lolium perenne (LOLPE) (setting [5]), 70%; with Lolium perenne (LOLPE) (setting [6]), 80%; in the assay with Avena fatua (AVEFA) (setting [7]), 50%; in the assay with Avena fatua (AVEFA) (setting [8]) it was 60%. In addition, the values for the pest or weed control at 250 g/ha in assay [2] (setting [9]) and in assay [2] (setting [10]) were 70% and 80%, respectively.

Values taken from patent US10206394B2, “Herbicidal compounds” (Syngenta Participations AG, priority 2014, dated 2019).
